Assay results: patent US20030170223A1, “Pulmonary vasodilator surfactant compositions and method of use” (Board of Trustees of Michigan State University, priority 2002, published 2003)

Assays:
[1] = aqueous solutions; cited from earlier work
[2] = test system: PA smooth muscle cell contraction in the lungs from new born rats (U46619 vasoconstriction); assay: Non-specific inhibition test: U46619 vasoconstriction response in isolated perfused lungs; parameters: species or system Sprague-Dawley rats; conditions: U46619 5 ng/mL
Protocol: (§1) Isolated perfused lung preparation prepared from newborn rats. Male or female newborn (less than 48 hours old) Sprague-Dawley rats are anesthetized with pentobarbital sodium (0.65 mg/kg; ip), and heparin (1000 U/kg) is administered intravenously. Lungs are isolated as follows. Briefly, the lungs and the heart are remove en block and the pulmonary artery (PA) and left atrium are cannulated and perfused with a buffered salt solution (BSS) (NaCl (117 mM), KCl (4 mM), NaHCO3 (18 mM), MgSO4 (0.76 mM), NaHPO4′H2O (1 mM), CaCl2 (1.21 mM), and glucose (1 g/L)) containing bovine serum albumin (0.5% w/v) and indomethacin (10 mg/L). After flushing the pulmonary circulation with perfusate (100-200 mL), the lungs are perfused from a recirculating system (35 mL) at 8 mL/min. Perfusate is maintained at […], pH 7.4, and bubbled with 5% O2, 5% CO2, and 90% N2. Left atrial pressure is maintained at 1 cm H2O2 by elevating the venous outflow cannula. The lungs are ventilated with a small animal respirator using a humidified gas mixture of 21% O2, 5% CO2, and 74% N2 (normoxia) at a rate of 54 breaths/in, a tidal volume of 2-3 mL and an end-expiratory pressure of 3 cm H2O2. Left atrial and PA pressures are continuously recorded on a multichannel strip chart recorder (Grass Instruments, Quincy, Mass.).
Hypoxia-induced changes in pulmonary vascular impedance are represented as the change in PA pressure observed during hypoxic ventilation under constant flow conditions, compared with normoxia, in cm H2O. Two hypoxic challenges are performed and averaged to define the baseline response prior to the experimental intervention, thus allowing each lung to act as its own control. The experimental agents then are added to the reservoir and allowed to recirculate for 5-10 minutes, after which two more hypoxic challenges are administered and averaged to evaluate the effects of the intervention. In the continued presence of the experimental agents, the stable thromboxane A2 analog, U46619 (5 ng/mL) is then added to the reservoir to determine the effect on the ability to respond to a receptor-mediated vasoconstricting agonist. This provided a measure of the specificity of the intervention for the response to hypoxia.
Non-specific inhibition of PA smooth muscle cell contraction in the lungs from new born rats. To determine whether the pharmacological agents that inhibited the HPV response in our study might also affect the response a receptor-mediated vasoconstrictor, studies are carried out using the stable Thromboxane A2 analog, U46619 (5 ng/mL). Experiments are performed to assess the U46619 response before and after the addition of the experimental agents. Briefly, lungs are subjected to a challenge of U46619 and the change in PA pressure is measured. The vasculature is then washed out with fresh perfusate until the PA pressure returned to baseline (approximately 10 minutes elapsed time), after which the experimental agents are administered to the reservoir. After 10 minutes, a second dose of U46619 is added to the reservoir and the change in PA pressure is measured. Only Rotenone blunted the U46619 vasoconstriction at 5 μg/mL. Myxothiazol (50 μg/mL), cyanide (10 μM), ebselen (50 μM), and DDC (1 μM) had no effect on the U46619 vasoconstriction response. DPI (10 μM), rotenone (50 ng/mL), antimycin A (1 ng/mL), PDTC (10 μM), and DIDS (200 μM) augmented the U46619 vasoconstriction response.

PA myocytes [3] = conditions: 10 μM
Protocol: To confirm that the loss of DCF fluorescence upon reoxygenation is not due to cell death subsequent to the opening of the mitochondrial permeability transition pore, additional studies are carried out using tetraethyrhodamine methyl ester (TMRE) to assess mitochondrial membrane potential (ΔΨm). This cationic dye equilibrates across the mitochondrial inner membrane in accordance with the AΔΨm, and changes in endothelia fluorescence at these non-quenching concentrations can be used to detect changes in mitochondrial polarization. PA myocytes on collagen-coated cover slips are loaded with TMRE (100 nM) for 45 minutes at 37° C. The cells are then placed in a flow-through chamber on an inverted microscope and perfused with M199 media without serum containing TMRE (10 nM). Fluorescence images are obtained under baseline normoxic conditions (16% O2/5% CO2) until a stable baseline is established. The PO2 of the media is then lowered for 30 mm (1% O2/5% CO2), after which it is restored to normoxia for 30 minutes.

PA endothelia myocytes = assay: DCFH oxidation (ROS probe) sensitivity check; assay type: cell-based, rat
Protocol: Pulmonary microvessel endothelia isolation and measurement of reactive oxygen species (ROS). ROS generation in pulmonary endothelia and myocytes is assessed using the probe 2′,7′-dichlorofluorescin diacetate (DCFH-DA, 5 μM Molecular Probes), which is continuously present in the perfusate. The diacetate form enters the cells where esterases cleave the acetate group, tending to trap the nonfluorescent 2′,7′-dichlorofluorescin (DCFH) intracellularly. In the presence of H2O2, this probe is oxidized to 2′,7′-dichlorofluorescein (DCF), which is quantified using fluorescence imaging (excitation: 488 nm, emission: 535 nm) in a system equipped with a 12 bit digital camera. Intensity values are reported as percent of initial values, after subtracting background (METAMORPHIC, Universal Imaging, Inc.).
To confirm that the DCFH dye is sensitive to oxidation by H2O2, additional studies are carried out in PA endothelia myocytes superfused with normoxic (16% O2) media in the presence of DCFH-DA (5 μM). […] When the H2O2-containing media is replaced with fresh media containing DCFH without H2O2, intracellular fluorescence decreased toward baseline values. These findings confirm that DCFH oxidation is sensitive to H2O2, and that oxidized DCF can leak out of viable cells and explain the decrease in fluorescence seen at reoxygenation.

[4] = test system: degradation of IκB-β / NF-κB; conditions: in vivo and experimental lung transplant preservation media; cited from earlier work
PA myocytes [5] = assay: SYTOX Green membrane permeability check; assay type: cell-based, rat; conditions: 300 μM, plasma membrane disruption
Protocol: Pulmonary microvessel myocyte isolation from the isolated lungs from the newborn rats. Myocytes are isolated using a modification of the method of Marshall et al. (______ (1999). Freshly excised rat heart and lungs are rinsed with phosphate-buffered saline (PBS) containing penicillin and streptomycin (1%). The right ventricle is cannulated and the pulmonary vasculature is flushed with the PBS (30 mL). Using the PA cannula, M199 growth media (30 mL) containing HEPES (25 mM), and penicillin and streptomycin (1%) plus low melting point agarose (0.5%) and iron particles (0.5%), is flushed through the pulmonary vasculature. Because the iron particles are too large to pass through the capillaries, only the arteries contained iron particles. The airways are filled via the trachea with M199 (15 mL) containing low melting point agarose (1%) without iron. The lungs are plunged into cold PBS to cause the agarose to gel. After 10 minutes, the lobes are dissected free and finely minced in a petri dish. […]
In steady state, increases in fluorescence occur when the rate of intracellular oxidation of the dye is accelerated. […] To confirm that the decrease in DCF fluorescence seen upon reoxygenation is not due to a loss of plasma membrane integrity, additional studies are carried out using SYTOX Green dye (100 nM) to detect changes in membrane permeability. […]

[6] = test system: isolated lungs from the newborn rats; assay: HPV responses in isolated lungs: PA pressure after agonist; parameters: species or system Sprague-Dawley rats; conditions: 10 nM in recirculating perfusate
Protocol: as §1
HPV responses in isolated lungs from the newborn rats. […]

COC1=C(OC)C(=O)C(C/C=C(\C)CC/C=C(\C)CC/C=C(\C)CC/C=C(\C)CC/C=C(\C)CC/C=C(\C)CC/C=C(\C)CC/C=C(\C)CC/C=C(\C)CCC=C(C)C)=C(C)C1=O [CoQ10, 2,3-dimethoxy-5-methyl-6-decaprenyl-1,4-benzoquinone]
solubility [1]: only lipid soluble

CCN(CC)C(=S)S [DDC, diethyldithiocarbamate]
effect on U46619 vasoconstriction response ([2]; 1 μM): no effect

O=S(=O)(O)c1cc(N=C=S)ccc1C=Cc1ccc(N=C=S)cc1S(=O)(=O)O [DIDS, 4,4′-diisothiocyanatostilbene-2,2′-disulphonic acid]
effect on U46619 vasoconstriction response ([2]; 200 μM): augmented

c1ccc2c(c1)[I+]c1ccccc1-2 [DPI, diphenyleneiodonium]
effect on U46619 vasoconstriction response ([2]; 10 μM): augmented

N#CC(C#N)=NNc1ccc(OC(F)(F)F)cc1 [FCCP, carbonyl cyanide p-trifluoromethoxyphenylhydrazone]
TMRE fluorescence (ΔΨm) (PA myocytes [3]): rapid, significant decrease in fluorescence

OO [H2O2]
intracellular DCF fluorescence (PA endothelia myocytes): increased significantly and progressively

CO/C(=C/C(N)=O)[C@H](C)[C@H](/C=C/c1csc(-c2csc([C@@H](C)/C=C/C=C/C(C)C)n2)n1)OC [Myxothiazol, myxothiazol]
effect on U46619 vasoconstriction response ([2]; 50 μg/mL): no effect

S=C(S)N1CCCC1 [PDTC, pyrrolidine dithiocarbamate]
effect on U46619 vasoconstriction response ([2]; 10 μM): augmented | solubility [1]: poorly soluble | pulmonary mean arterial pressure (MAP), edema, and cellular infiltration [4]: reduced | pulmonary oxygenation [4]: improved significantly

C[C@@H]1CC[C@@]2(OC1)O[C@H]1[C@@H](O)[C@H]3[C@@H]4CC[C@H]5C[C@@H](O[C@@H]6O[C@H](CO)[C@H](O[C@@H]7O[C@H](CO)[C@@H](O)[C@H](O[C@@H]8OC[C@@H](O)[C@H](O)[C@H]8O)[C@H]7O[C@@H]7O[C@H](CO)[C@H](O)[C@H](O[C@@H]8O[C@H](CO)[C@@H](O)[C@H](O)[C@H]8O)[C@H]7O)[C@H](O)[C@H]6O)[C@H](O)C[C@]5(C)[C@H]4CC[C@]3(C)[C@H]1[C@@H]2C [digitonin]
nuclear staining with SYTOX Green (PA myocytes [5]): all cells demonstrated nuclear staining

O=c1c2ccccc2[se]n1-c1ccccc1 [ebselen]
effect on U46619 vasoconstriction response ([2]; 50 μM): no effect

C=C(C)[C@H]1Cc2c(ccc3c2O[C@@H]2COc4cc(OC)c(OC)cc4[C@@H]2C3=O)O1 [rotenone]
effect on U46619 vasoconstriction response ([2]; 50 ng/mL): augmented | effect on U46619 vasoconstriction response ([2]; 5 μg/mL, isolated perfused newborn rat lung): blunted

Angiotensin II
increase of PA pressure [6]: ~2 cm H2O

antimycin A
effect on U46619 vasoconstriction response ([2]; 1 ng/mL): augmented

B1: recombinant human IκB-α: recombinant human IκB-α which can maintain the inhibitory effect on NF-κB (protein, UniProt P25963 1-317, looked up)
NF-kappa-B inhibitor alpha: MFQAAERPQEWAMEGPRDGLKKERLLDDRHDSGLDSMKDEEYEQMVKELQEIRLEPQEVPRGSEPWKQQLTEDGDSFLHLAIIHEEKALTMEVIRQVKGDLAFLNFQNNLQQTPLHLAVITNQPEIAEALLGAGCDPELRDFRGNTPLHLACEQGCLASVGVLTQSCTTPHLHSILKATNYNGHTCLHLASIHGYLGIVELLVSLGADVNAQEPCNGRTALHLAVDLQNPDLVSLLLKCGADVNRVTYQGYSPYQLTWGRPSTRIQQQLGQLTLENLQMLPESEDEESYDTESEFTEFTEDELPYDDCVFGGQRLTL
solubility [1]: poorly soluble
